Each structure is given as a SMILES string.

A short description of one data set: Solubility in H2O. The conditions noted are these: pH 7.2. The text has this:
(§1) In one embodiment, a small molecule drug formulation includes a small molecule psychotherapeutic drug, such as a small molecule antipsychotic, dopamine receptor agonist, dopamine receptor antagonist, serotonin receptor agonist, serotonin receptor antagonist, and serotonin uptake inhibitor drug. […] R209130-base has the molecular formula C19H20FNO. R209130-mandelic acid salt (R209130) has the molecular formula C19H20FNO.C8H8O3. R209130-tartaric acid salt (R167154) has the molecular formula C19H20FNO.C4H6O6.

Data set [1] can be described thus: Solubility in benzyl alcohol (BA). Particulars: temperature not given.
Description: as §1

Data set [2] can be described thus: Solubility in benzyl benzoate (BB). Particulars: temperature not given.
Description: as §1

The next data set is described as follows: Solubility at pH 7. The conditions noted are these: cell states pH 7.2.
Description: as §1

The nature of data set [3]: Intrinsic dissolution rate. Format: physicochemical.
Description: as §1

Regarding `Cc1nc2n(c(=O)c1CCN1CCC(c3noc4cc(F)ccc34)CC1)CCCC2` [Risperidone pamoate, Risperidone-pamoate], the “Solubility in H2O” value in “Solubility in H2O” is listed as 0.2 (pH 7.2) mg/ml. The “Solubility in BA” value in data set [1] is 2970 µg/mL. Moreover, the “Solubility in BB” value in data set [2] was found to be 50 µg/mL. Further, the “Solubility at pH 7” value in “Solubility at pH 7” is given as 0.2 (pH 7.2) mg/ml.

As to `Cc1nc2n(c(=O)c1CCN1CCC(c3noc4cc(F)ccc34)CC1)CCCC2` [Risperidone base, Risperidone], the Intrinsic dissolution rate in data set [3] turned out to be 0.0025 mg/cm^2 · min.
